From US20240247253A1, “PRODUCTION METHOD OF POLYPEPTIDE, TAG, EXPRESSION VECTOR, EVALUATION METHOD OF POLYPEPTIDE, PRODUCTION METHOD OF NUCLEIC ACID DISPLAY LIBRARY, AND SCREENING METHOD” (FUJIFILM Corporation, priority 2021, published 2024) come the findings set out here.

The test system of assay [1] is cell-free peptide synthesis system derived from Escherichia coli. In words: Cell-free biosynthesis of the integrin binding peptide fusion protein with N-terminal tag, 1 hour reaction, amount measured by ELISA. It counts as biochemical. The note with it: relative value, control example without tag = 1; fusion protein SEQ ID NO: 5; 37° C. for 1 hour; average of two measurements. The text has this: In the cell-free peptide synthesis system derived from Escherichia coli, the effect of the VKKX tag on the biosynthesis amount of the polypeptide was examined. As a polypeptide to be biosynthesized, an integrin binding peptide containing cysteine and chloroacetyl lysine was selected. In this polypeptide, a thiol group of cysteine and a chloroacetyl group of chloroacetyl lysine spontaneously form a thioether bond to become a cyclic polypeptide.
A fusion protein in which an integrin binding peptide, a Myc tag, and a HiBiT tag were linked in this order was designed. As a spacer, Gly-Gly-Ser was inserted between the integrin binding peptide and the Myc tag and between the Myc tag and the HiBiT tag. The amino acid sequence of this fusion protein is SEQ ID NO: 5, and the base sequence encoding this fusion protein is SEQ ID NO: 6. In SEQ ID NO: 5, the integrin binding peptide ranges to the amino acid at the twelfth position (that is, alanine) from an N-terminal, and the amino acid at eleventh position from the N-terminal is chloroacetyl lysine. The triplet TAG at the positions 31 to 33 from the 5′ terminal of the base sequence set forth in SEQ ID NO: 6 was assigned to the codon of chloroacetyl lysine. The end of the base sequence set forth in SEQ ID NO: 6 is the stop codon TAA.
A base sequence encoding a tagged fusion protein in which methionine, a VKKX tag (any of SEQ ID nOs: 7 to 52), and a fusion protein (SEQ ID NO: 5) were linked in this order was designed. In this base sequence, a base sequence (any of SEQ ID nOs: 53 to 98) encoding a VKKX tag is arranged immediately after the start codon ATG, and a base sequence encoding a fusion protein immediately after the base sequence (SEQ ID NO: 6) encoding the VKKX tag is arranged.
As a control example for evaluating the effect of the VKKX tag, a base sequence in which a base sequence (SEQ ID NO: 6) encoding a fusion protein arranged immediately after the start codon ATG was designed.
In order to translate chloroacetyl lysine which is an unnatural amino acid, a tRNA in which the anticodon was CUA and paired with the UAG codon of mRNA was prepared. This tRNA was aminoacylated with an N-chloroacetyl lysine hosphoro 2′ deoxyribocytidylylriboadenosine (pdCpA) ester. This aminoacyl tRNA is referred to as an Aminoacyl tRNA (1).
(§1) The cell-free biosynthesis of the polypeptide was carried out in a translation solution containing a template DNA, PUREfrex 2.0 (GeneFrontier, PF201-0.25-5), and Aminoacyl tRNA (1). 1.25 μL (62.5 ng) of the template DNA prepared to 50 ng/μL, 2.5 μL of PUREfrex 2.0 Solution I, 0.25 μL of Solution II, 0.5 μL of Solution III, and 0.5 μL of Aminoacyl tRNA (1) were mixed and mixture was subjected to a reaction at 37° ° C. for 1 hour.
The amount of the biosynthesized polypeptide was measured by ELISA. 50 ng of Recombinant Human Integrin αVβ3 (R&D systems, 3050-AV-050) was immobilized in each well of a 96-well plate and blocked with Blocker Casein in PBS (Thermo, 37528), and then a cell-free biosynthesis solution diluted with Can Get Signal Immunoreaction Enhancer Solution I (TOYOBO, NKB-101) containing 5 mmol/L MgCl2 was added thereto, and the mixture was subjected to a reaction at room temperature for 3 hours. After washing with 5 mmol/L MgCl2/0.05% Tween 20-containing phosphate buffered saline (PBS), an anti-Myc antibody (Cell Signaling, 14038S) diluted with Can Get Signal Immunoreaction Enhancer Solution II (TOYOBO, NKB-101) was added thereto, and the mixture was subjected to a reaction at room temperature for 2 hours. After washing with PBS containing 5 mmol/L MgCl2/0.05% Tween 20, Super Signal ELISA Femto Substrate (Thermo, 37075) was added thereto, and the luminescence was measured. The amount of the fusion protein in the cell-free biosynthesis solution was calculated based on a calibration curve created from the fusion protein having a known concentration. The luminescence measurement was performed twice, and the average value of the amounts of the fusion protein was calculated. […]

For assay [2] the test system is unchanged. Nature of the assay: Cell-free biosynthesis of the integrin binding peptide fusion protein with tag, reaction time 10 minutes, ELISA. It counts as biochemical. The note with it: relative value, control without tag = 1; reaction time 10 minutes; fusion protein SEQ ID NO: 5; SKIK encoded by SEQ ID NO: 110. How it is done: as §1
The amount of the biosynthesized polypeptide was measured by ELISA. 50 ng of Recombinant Human Integrin αVβ3 (R&D systems, 3050-AV-050) was immobilized in each well of a 96-well plate and blocked with Blocker Casein in PBS (Thermo, 37528), and then a cell-free biosynthesis solution diluted with Can Get Signal Immunoreaction Enhancer Solution I (TOYOBO, NKB-101) containing 5 mmol/L MgCl2 was added thereto, and the mixture was subjected to a reaction at room temperature for 3 hours. After washing with 5 mmol/L MgCl2/0.05% Tween 20-containing phosphate buffered saline (PBS), an anti-Myc antibody (Cell Signaling, 14038S) diluted with Can Get Signal Immunoreaction Enhancer Solution II (TOYOBO, NKB-101) was added thereto, and the mixture was subjected to a reaction at room temperature for 2 hours. After washing with PBS containing 5 mmol/L MgCl2/0.05% Tween 20, Super Signal ELISA Femto Substrate (Thermo, 37075) was added thereto, and the luminescence was measured. The amount of the fusion protein in the cell-free biosynthesis solution was calculated based on a calibration curve created from the fusion protein having a known concentration. The luminescence measurement was performed twice, and the average value of the amounts of the fusion protein was calculated. Table 2-1 and Table 2-2 show relative values of the biosynthesis amounts of respective fusion proteins in a case where the amount of the fusion protein of the control example was set to the reference value 1.
As a comparative control, a SKIK tag represented by SEQ ID NO: 107 was selected. The polypeptide to be biosynthesized is the fusion protein containing the integrin binding peptide, as in Example 1.
Using a template DNA including DNA sequences (SEQ ID NOs: 73 to 98) encoding VKKX tags represented by SEQ ID NOs: 27 to 52 produced in Example 1, and a DNA sequence (SEQ ID NO: 110) encoding a SKIK tag represented by SEQ ID NO: 107 produced in Example 2, the biosynthesis reaction was performed in the same manner as in Example 1 by setting the reaction time to 10 minutes. In the same manner in Example 1, the fusion protein was expressed by the cell-free peptide synthesis system and quantified by ELISA. The measurement was performed twice, and the average value of the amounts of the fusion protein was calculated. […] As control example used in Example 1, the control example of the reference value 1 has a form in which the base sequence (SEQ ID NO: 6) encoding the fusion protein is arranged immediately after the start codon ATG.

For “SEQ ID NO: 7: VKKX tag, amino acid sequence VKKI (VKKX Tag)”, in assay [1], the “Biosynthesis amount of fusion protein” value is 4.40.

For the substance “SEQ ID NO: 8: VKKX tag, amino acid sequence VKKK (VKKX Tag)”, the “Biosynthesis amount of fusion protein” value in assay [1] amounted to 6.15.

In the case of “SEQ ID NO: 9: VKKX tag, amino acid sequence VKKT (VKKX Tag)”, the “Biosynthesis amount of fusion protein” value in assay [1] stood at 5.66.

Take “SEQ ID NO: 10: VKKX tag, amino acid sequence VKKR (VKKX Tag)”: the “Biosynthesis amount of fusion protein” value in assay [1] was determined as 5.75.

Regarding “SEQ ID NO: 11: VKKX tag, amino acid sequence VKKS (VKKX Tag)”, in assay [1], the “Biosynthesis amount of fusion protein” value was 6.05.

Regarding “SEQ ID NO: 12: VKKX tag, amino acid sequence VKKH (VKKX Tag)”, the “Biosynthesis amount of fusion protein” value in assay [1] turned out to be 5.82.

Regarding “SEQ ID NO: 13: VKKX tag, amino acid sequence VKKM (VKKX Tag)”, the “Biosynthesis amount of fusion protein” value in assay [1] was found to be 1.94.

For “SEQ ID NO: 14: VKKX tag, amino acid sequence VKKP (VKKX Tag)”, the “Biosynthesis amount of fusion protein” value in assay [1] was 2.23.

On to “SEQ ID NO: 15: VKKX tag, amino acid sequence VKKG (VKKX Tag)”, for which the “Biosynthesis amount of fusion protein” value in assay [1] was 2.39.

Take “SEQ ID NO: 16: VKKX tag, amino acid sequence VKKL (VKKX Tag)”: in assay [1], the “Biosynthesis amount of fusion protein” value is listed as 2.71.

For the substance “SEQ ID NO: 17: VKKX tag, amino acid sequence VKKV (VKKX Tag)”, in assay [1], the “Biosynthesis amount of fusion protein” value stood at 2.90.

Turning to “SEQ ID NO: 18: VKKX tag, amino acid sequence VKKE (VKKX Tag)”, the “Biosynthesis amount of fusion protein” value in assay [1] amounted to 2.94.

With “SEQ ID NO: 19: VKKX tag, amino acid sequence VKKA (VKKX Tag)”, the “Biosynthesis amount of fusion protein” value in assay [1] is listed as 3.01.

As for “SEQ ID NO: 20: VKKX tag, amino acid sequence VKKD (VKKX Tag)”, the “Biosynthesis amount of fusion protein” value in assay [1] turned out to be 3.05.

In the case of “SEQ ID NO: 21: VKKX tag, amino acid sequence VKKC (VKKX Tag)”, the “Biosynthesis amount of fusion protein” value in assay [1] was 3.14.

For “SEQ ID NO: 22: VKKX tag, amino acid sequence VKKN (VKKX Tag)”, the “Biosynthesis amount of fusion protein” value in assay [1] turned out to be 3.17.

“SEQ ID NO: 23: VKKX tag, amino acid sequence VKKY (VKKX Tag)”: the “Biosynthesis amount of fusion protein” value in assay [1] is 3.30.

On to “SEQ ID NO: 24: VKKX tag, amino acid sequence VKKQ (VKKX Tag)”, for which the “Biosynthesis amount of fusion protein” value in assay [1] was 3.52.

On to “SEQ ID NO: 25: VKKX tag, amino acid sequence VKKW (VKKX Tag)”, for which the “Biosynthesis amount of fusion protein” value in assay [1] amounted to 3.52.

For “SEQ ID NO: 26: VKKX tag, amino acid sequence VKKF (VKKX Tag)”, the “Biosynthesis amount of fusion protein” value in assay [1] is 3.69.

“SEQ ID NO: 28: VKKX tag, amino acid sequence VKKTKTT (VKKX Tag)”: the “Biosynthesis amount of fusion protein” value is 6.28 in assay [1] and 16.65 in assay [2].

For the substance “SEQ ID NO: 29: VKKX tag, amino acid sequence VKKTKTD (VKKX Tag)”, the “Biosynthesis amount of fusion protein” value in assay [1] is reported as 6.09; in assay [2], 15.90.

Take “SEQ ID NO: 30: VKKX tag, amino acid sequence VKKTKTKK (VKKX Tag)”: the “Biosynthesis amount of fusion protein” value is 9.01 in assay [1] and 24.42 in assay [2].

In the case of “SEQ ID NO: 31: VKKX tag, amino acid sequence VKKTKTKT (VKKX Tag)”, the entries for the “Biosynthesis amount of fusion protein” value in assay [1] and in assay [2] were 9.08 and 15.48, respectively.

On to “SEQ ID NO: 32: VKKX tag, amino acid sequence VKKTKTKD (VKKX Tag)”, for which the entries for the “Biosynthesis amount of fusion protein” value in assay [1] and in assay [2] were 8.04 and 20.56, respectively.

For “SEQ ID NO: 33: VKKX tag, amino acid sequence VKKTKTTK (VKKX Tag)”, the “Biosynthesis amount of fusion protein” value in assay [1] is given as 6.54; in assay [2] it was 8.17.

As for “SEQ ID NO: 34: VKKX tag, amino acid sequence VKKTKTTT (VKKX Tag)”, the “Biosynthesis amount of fusion protein” value stood at 6.69 in assay [1] and 8.59 in assay [2].

Regarding “SEQ ID NO: 35: VKKX tag, amino acid sequence VKKTKTDD (VKKX Tag)”, the “Biosynthesis amount of fusion protein” value was determined as 5.75 in assay [1] and 8.49 in assay [2].

Turning to “SEQ ID NO: 36: VKKX tag, amino acid sequence VKKTKTKKT (VKKX Tag)”, the “Biosynthesis amount of fusion protein” value came out at 10.50 in assay [1] and 13.13 in assay [2].

In the case of “SEQ ID NO: 37: VKKX tag, amino acid sequence VKKTKTKKD (VKKX Tag)”, the “Biosynthesis amount of fusion protein” value in assay [1] came out at 11.45; in assay [2], 19.84.

In the case of “SEQ ID NO: 38: VKKX tag, amino acid sequence VKKTKTKTK (VKKX Tag)”, the results for the “Biosynthesis amount of fusion protein” value in assay [1] and in assay [2] were 8.42 and 16.95, respectively.

Take “SEQ ID NO: 39: VKKX tag, amino acid sequence VKKTKTKTT (VKKX Tag)”: the results for the “Biosynthesis amount of fusion protein” value in assay [1] and in assay [2] were 7.22 and 7.57, respectively.

As to “SEQ ID NO: 40: VKKX tag, amino acid sequence VKKTKTKDK (VKKX Tag)”, the entries for the “Biosynthesis amount of fusion protein” value in assay [1] and in assay [2] were 8.49 and 10.77, respectively.
